The assay deals with His-tagged recombinant human Gal-3 (hGal-3) (Homo sapiens (Human), UniProt P17931). Description: Gal-3 HTRF assay (His-tagged hGal-3 binding to B-ASF).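 Further: compounds preincubated 30 min with hGal-3, then 1 h with B-ASF, detection via terbium anti-His antibody and streptavidin d2. Control with B-ASF counts as full signal, omitting B-ASF as background.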
[1] abbreviates: HTRF, hGal-3 15 nM, B-ASF 15 nM, read-out: hGal-3 IC50.

The values below come from US11267811B2, “Small molecule inhibitors of galectin-3” (BRISTOL-MYERS SQUIBB COMPANY, priority 2017, dated 2022).

pIC50: −log10 of the molar value. Like-named read-outs stand apart in the source and are kept apart here.

Chain of His-tagged recombinant human Gal-3 (hGal-3) (P17931 whole entry): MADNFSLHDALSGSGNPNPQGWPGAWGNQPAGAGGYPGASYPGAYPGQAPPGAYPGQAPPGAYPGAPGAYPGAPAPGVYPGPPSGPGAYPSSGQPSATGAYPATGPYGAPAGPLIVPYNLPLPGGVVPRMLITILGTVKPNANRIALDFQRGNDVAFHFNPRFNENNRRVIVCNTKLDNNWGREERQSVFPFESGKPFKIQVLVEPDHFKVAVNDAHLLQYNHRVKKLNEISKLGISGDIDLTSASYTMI

The term pIC50 denotes the negative decadic logarithm of the IC50, by convention in mol/L. As to `COc1cccc(-c2cnnn2[C@@H]2O[C@H](CO)[C@H](O)[C@H](n3cc(-c4cc(F)c(F)c(F)c4)nn3)[C@H]2O)c1` [Example 9], the pIC50 under setting [1] was 6.80.
Regarding `OC[C@H]1O[C@@H](c2ncnn2-c2cc(Cl)ccc2C(F)(F)F)[C@H](O)[C@@H](n2cc(-c3cc(F)c(F)c(F)c3)nn2)[C@H]1O` [Example A7], the pIC50 (read-out: hGal IC50) was 7.57.
Take `OC[C@H]1O[C@@H](c2nncn2Cc2nc3ccccc3s2)[C@H](O)[C@@H](n2cc(-c3cc(F)c(F)c(F)c3)nn2)[C@H]1O` [Example 130]: the pIC50 under setting [1] is 6.49.
In the case of `Cc1nc([C@@H]2O[C@H](CO)[C@H](O)[C@H](n3cc(-c4ccc(Br)c(F)c4)nn3)[C@H]2O)n(-c2cc(Cl)ccc2C2CC2)n1` [Example A38], under “read-out: hGal IC50”, the pIC50 is 7.14.
On to `OC[C@H]1O[C@@H](c2nncn2-c2cccc3cc[nH]c23)[C@H](O)[C@@H](n2cc(-c3cc(F)c(F)c(F)c3)nn2)[C@H]1O` [Example 165], for which the pIC50 under setting [1] is 6.03.
Take `CNc1ccc(-c2cn([C@H]3[C@@H](O)[C@@H](CO)O[C@@H](c4ncnn4-c4ccc5nc(C)sc5c4)[C@@H]3O)nn2)cc1F` [Example 207]: the pIC50 (read-out: hGal3 IC50) is 6.13.
In the case of `Cc1nc([C@@H]2O[C@H](CO)[C@H](O)[C@H](n3cc(-c4ccc(Br)c(F)c4)nn3)[C@H]2O)n(-c2cc(Cl)cc3ccncc23)n1` [Example A39], the pIC50 (read-out: hGal IC50) was 6.79.
Turning to `Cc1ncc(Cl)cc1-n1cnnc1[C@@H]1O[C@H](CO)[C@H](O)[C@H](n2cc(-c3cc(F)c(F)c(F)c3)nn2)[C@H]1O` [Example 138], the pIC50 under setting [1] was 7.40.
Take `Cc1nc([C@H]2C[C@@H](n3cc(-c4cc(F)c(Cl)c(F)c4)nn3)[C@@H](O)[C@@H](CO)O2)n(-c2cc(Cl)ccc2Cl)n1` [Example 262]: where the note is “read-out: hGal3 IC50”, the pIC50 was 7.00.
As to `CO[C@@H]1[C@@H](n2cc(-c3cc(F)c(F)c(F)c3)nn2)[C@@H](O)[C@@H](CO)O[C@H]1c1nncn1-c1ccc2nc(C)sc2c1` [Example 282, (2R,3R,4S,5R,6S)-2-(hydroxymethyl)-5-methoxy-6-(4-(2-methylbenzo[d]thiazol-6-yl)-4H-1,2,4-triazol-3-yl)-4-(4-(3,4,5-trifluorophenyl)-1H-1,2,3-triazol-1-yl)tetrahydro-2H-pyran-3-ol], the pIC50 under setting [1] was 7.52.
With `Cc1nc2ccc(-n3ncnc3[C@@H]3O[C@H](CO)[C@H](O)[C@H](n4cc(C(=O)NCc5cccc(F)c5)nn4)[C@H]3O)cc2s1` [Example 200], the pIC50 under setting [1] is 6.07.
On the same count and under the same terms, to `CC(=O)Nc1ccc(-n2cnnc2[C@@H]2O[C@H](CO)[C@H](O)[C@H](n3cc(-c4cc(F)c(F)c(F)c4)nn3)[C@H]2O)cc1O` [Example 159] belongs 6.08; to `CSc1cc(Cl)cc(-n2cnnc2[C@@H]2O[C@H](CO)[C@H](O)[C@H](n3cc(-c4cc(F)c(F)c(F)c4)nn3)[C@H]2O)c1` [Example 147], 7.22; to `OC[C@H]1O[C@@H](c2ncnn2-c2cccc(C(F)(F)F)c2)[C@H](O)[C@@H](n2cc(-c3cc(F)c(F)c(F)c3)nn2)[C@H]1O` [Example 36], 6.66.
For the compound `CCO[C@@H]1[C@@H](n2cc(-c3cc(F)c(F)c(F)c3)nn2)[C@@H](O)[C@@H](CO)O[C@H]1c1ncnn1-c1cccc(Cl)c1` [Example 55], under setting [1], the pIC50 was 6.80.
Turning to `Cc1nc2ccc(-n3c([C@@H]4O[C@H](CO)[C@H](O)[C@H](n5cc(-c6cc(F)c(F)c(F)c6)nn5)[C@H]4O)nnc3C(F)(F)F)cc2s1` [Example 274], the pIC50 (read-out: hGal3 IC50) was 7.30.
As to `Cc1nc([C@@H]2O[C@H](CO)[C@H](O)[C@H](n3cc(-c4cc(F)c(Br)c(F)c4)nn3)[C@H]2O)n(-c2ccc3nc(C)sc3c2)n1` [Example A32], the pIC50 (read-out: hGal IC50) is 7.39.
As for `COc1ccc([C@@H]2O[C@H](CO)[C@H](O)[C@H](n3cc(-c4cc(F)c(F)c(F)c4)nn3)[C@H]2O)cc1` [Example 292, (2R,3R,4R,5R,6S)-2-(hydroxymethyl)-6-(4-methoxyphenyl)-4-(4-(3,4,5-trifluorophenyl)-1H-1,2,3-triazol-1-yl)tetrahydro-2H-pyran-3,5-diol], the pIC50 under setting [1] was 5.00.
For `OC[C@H]1O[C@@H](c2nncn2-c2ccccc2F)[C@H](O)[C@@H](n2cc(-c3cc(F)c(F)c(F)c3)nn2)[C@H]1O` [Example 97], the pIC50 under setting [1] was 6.46.
Still for that read-out and setting: for `CO[C@@H]1[C@@H](n2cc(-c3cc(F)c(F)c(F)c3)nn2)[C@@H](O)[C@@H](CO)O[C@H]1c1ncnn1-c1ccc2nc(C)sc2c1` [Example 191] the value was 7.22.
Regarding `Cc1nc2ccc(-n3ncnc3[C@@H]3O[C@H](CO)[C@H](O)[C@H](n4cc(-c5ccc(C#N)c(F)c5)nn4)[C@H]3O)cc2s1` [Example 230], for the setting “read-out: hGal3 IC50”, the pIC50 was 6.35.
Take `Cc1nc2ccc(-n3ncnc3[C@@H]3O[C@H](CO)[C@H](O)[C@H](n4cc(-c5cc(F)cc(C(F)(F)F)c5)nn4)[C@H]3O)cc2s1` [Example 228]: where the note is “read-out: hGal3 IC50”, the pIC50 was 6.38.
`Cc1nnc([C@@H]2O[C@H](CO)[C@H](O)[C@H](n3cc(-c4cc(F)c(Br)c(F)c4)nn3)[C@H]2O)n1-c1cc(Cl)ccc1C(F)(F)F` [Example 313]: the pIC50 (read-out: hGal3 IC50) was 8.06.
For the compound `Cc1nc([C@@H]2O[C@H](CO)[C@H](O)[C@H](n3cc(-c4cc(F)c(F)c(F)c4)nn3)[C@H]2O)c(-c2cccc(Cl)c2)s1` [Example 284, (2S,3R,4R,5R,6R)-2-(5-(3-chlorophenyl)-2-methylthiazol-4-yl)-6-(hydroxymethyl)-4-(4-(3,4,5-trifluorophenyl)-1H-1,2,3-triazol-1-yl)tetrahydro-2H-pyran-3,5-diol], under setting [1], the pIC50 was 5.62.
Regarding `Cc1nc2ccc(-n3ncnc3[C@@H]3O[C@H](CO)[C@H](O)[C@H](n4cc(-c5cc(F)c(Cl)cc5F)nn4)[C@H]3O)cc2s1` [Example 222], the negative logarithm of the IC50 (pIC50) under setting [1] is 6.62.
Take `CO[C@@H]1[C@@H](n2cc(-c3ccc(Cl)c(F)c3)nn2)[C@@H](O)[C@@H](CO)O[C@H]1c1nc(C)nn1-c1cc(Cl)ccc1Cl` [Example 257, (2R,3R,4S,5R,6S)-4-(4-(4-chloro-3-fluorophenyl)-1H-1,2,3-triazol-1-yl)-6-(1-(2,5-dichlorophenyl)-3-methyl-1H-1,2,4-triazol-5-yl)-2-(hydroxymethyl)-5-methoxytetrahydro-2H-pyran-3-ol]: the pIC50 under setting [1] was 7.30.
As for `OC[C@H]1O[C@@H](c2nncn2-c2cc(Cl)ccc2C(F)(F)F)[C@H](O)[C@@H](n2cc(-c3ccc(Cl)c(F)c3)nn2)[C@H]1O` [Example 309], the pIC50 (read-out: hGal3 IC50) was 7.70.
With `Cc1nc([C@@H]2O[C@H](CO)[C@H](O)[C@H](n3cc(-c4cc(F)c(F)c(F)c4)nn3)[C@H]2O)n(-c2cncc(Cl)c2)n1` [Example 65], under setting [1], the pIC50 was 6.66.
For the compound `COc1ccc(-n2cnnc2[C@@H]2O[C@H](CO)[C@H](O)[C@H](n3cc(-c4cc(F)c(F)c(F)c4)nn3)[C@H]2O)cc1Cl` [Example 145], the pIC50 under setting [1] is 6.64.
Take `OC[C@H]1O[C@@H](c2nncn2-c2ccccc2)[C@H](O)[C@@H](n2cc(-c3cc(F)c(F)c(F)c3)nn2)[C@H]1O` [Example 73, (2R,3R,4R,5R,6S)-2-(hydroxymethyl)-6-(4-phenyl-4H-1,2,4-triazol-3-yl)-4-(4-(3,4,5-trifluorophenyl)-1H-1,2,3-triazol-1-yl)tetrahydro-2H-pyran-3,5-diol]: the pIC50 under setting [1] is 6.68.
For `OC[C@H]1O[C@@H](c2nncn2-c2ccc3ccccc3c2)[C@H](O)[C@@H](n2cc(-c3cc(F)c(F)c(F)c3)nn2)[C@H]1O` [Example 95], the pIC50 under setting [1] was 6.89.
In the case of `Cc1nc([C@@H]2O[C@H](CO)[C@H](O)[C@H](n3cc(-c4ccc(Cl)c(F)c4)nn3)[C@H]2O)n(-c2ccc3nc(C(F)(F)F)sc3c2)n1` [Example A9], the pIC50 (read-out: hGal IC50) was 6.08.
Take `CNS(=O)(=O)Cc1ccc(-n2cnnc2[C@@H]2O[C@H](CO)[C@H](O)[C@H](n3cc(-c4cc(F)c(F)c(F)c4)nn3)[C@H]2O)cc1` [Example 114]: the pIC50 under setting [1] was 6.59.
`OC[C@H]1O[C@@H](c2ncnn2-c2cccc(Cl)c2)C[C@@H](n2cc(-c3cc(F)c(F)c(F)c3)nn2)[C@H]1O` [Example 173, (2R,3R,4R,6R)-6-(1-(3-chlorophenyl)-1H-1,2,4-triazol-5-yl)-2-(hydroxymethyl)-4-(4-(3,4,5-trifluorophenyl)-1H-1,2,3-triazol-1-yl)tetrahydro-2H-pyran-3-ol]: the pIC50 under setting [1] was 6.74.
As to `Cc1nc2ccc(-n3ncnc3[C@@H]3O[C@H](CO)[C@H](O)[C@H](n4cc(-c5ccc(C)c(F)c5)nn4)[C@H]3O)cc2s1` [Example 212], for the setting “read-out: hGal3 IC50”, the pIC50 was 7.22.
For the compound `Cc1nc([C@@H]2O[C@H](CO)[C@H](O)[C@H](n3cc(-c4ccc5nccnc5c4)nn3)[C@H]2O)n(-c2cc(Cl)ccc2C(F)(F)F)n1` [Example A66], the pIC50 (read-out: hGal IC50) is 6.68.
Take `OC[C@H]1O[C@@H](c2nncn2Cc2cccs2)[C@H](O)[C@@H](n2cc(-c3cc(F)c(F)c(F)c3)nn2)[C@H]1O` [Example 127]: the pIC50 under setting [1] is 5.89.
As for `OC[C@H]1O[C@@H](c2nncn2-c2ccc3cn[nH]c3c2)[C@H](O)[C@@H](n2cc(-c3cc(F)c(F)c(F)c3)nn2)[C@H]1O` [Example 164], under setting [1], the pIC50 is 6.20.
With `N#Cc1cccc(-n2cnnc2[C@@H]2O[C@H](CO)[C@H](O)[C@H](n3cc(-c4cc(F)c(F)c(F)c4)nn3)[C@H]2O)c1` [Example 153], the pIC50 under setting [1] is 6.85.
As to `Cc1nc2ccc(-n3ncnc3[C@@H]3O[C@H](CO)[C@H](O)[C@H](n4cc(-c5cccc(F)c5)nn4)[C@H]3O)cc2s1` [Example 213], under “read-out: hGal3 IC50”, the pIC50 is 6.92.
As to `Cc1nc([C@H]2C[C@@H](n3cc(-c4cc(F)c(F)c(F)c4)nn3)[C@@H](O)[C@@H](CO)O2)n(-c2ccc3nc(C)sc3c2)n1` [Example 187], the pIC50 under setting [1] was 6.96.
For the compound `Cn1nccc1[C@@H]1O[C@H](CO)[C@H](O)[C@H](n2cc(-c3cc(F)c(F)c(F)c3)nn2)[C@H]1O` [Ex 286], the negative-log IC50 (pIC50) (read-out: hGal3 IC50) was 5.00.
Consider `Cc1nnc(NS(=O)(=O)c2ccc(-n3cnnc3[C@@H]3O[C@H](CO)[C@H](O)[C@H](n4cc(-c5cc(F)c(F)c(F)c5)nn4)[C@H]3O)cc2)s1` [Example 110], for which the pIC50 under setting [1] was 5.81.
The same measure, in the same setting: for `Cc1ccc(-n2ncnc2[C@@H]2O[C@H](CO)[C@H](O)[C@H](n3cc(-c4cc(F)c(F)c(F)c4)nn3)[C@H]2O)cc1` [Example 39] the value was 6.26.
